According to ChEMBL document CHEMBL4507266, “Data for DCP probe BAY-784” (2021):

Experiments:
[1] = molecular target: Fibroblast growth factor receptor 2 (Homo sapiens) (UniProt P21802); conditions: Compound concentration 1000.0 nM
[2] = molecular target: Mitotic checkpoint serine/threonine-protein kinase BUB1 (Homo sapiens) (UniProt O43683); conditions: Compound concentration 1000.0 nM
[3] = molecular target: Mitogen-activated protein kinase 9 (Homo sapiens) (UniProt P45984); conditions: Compound concentration 1000.0 nM
[4] = molecular target: Serine/threonine-protein kinase tousled-like 2 (Homo sapiens) (UniProt Q86UE8); conditions: Compound concentration 1000.0 nM
[5] = molecular target: Mitogen-activated protein kinase kinase kinase 20 (Homo sapiens) (UniProt Q9NYL2); conditions: Compound concentration 1000.0 nM
[6] = molecular target: Serine/threonine-protein kinase mTOR (Homo sapiens) (UniProt P42345); conditions: Compound concentration 1000.0 nM
[7] = molecular target: Ribosomal protein S6 kinase alpha-5 (Homo sapiens) (UniProt O75582); conditions: Compound concentration 1000.0 nM
[8] = molecular target: Homeodomain-interacting protein kinase 3 (Homo sapiens) (UniProt Q9H422); conditions: Compound concentration 1000.0 nM
[9] = molecular target: Beta-3 adrenergic receptor (Homo sapiens) (UniProt P13945); conditions: Compound concentration 10.0 uM
[10] = test system: Fibroblast growth factor receptor 3 (Homo sapiens), P22607 [G697C]; conditions: Compound concentration 1000.0 nM
[11] = molecular target: Cyclin-dependent kinase 4 (Homo sapiens) (UniProt P11802); conditions: Compound concentration 1000.0 nM
[12] = test system: Phosphatidylinositol 4,5-bisphosphate 3-kinase catalytic subunit alpha isoform (Homo sapiens), P42336 [C420R]; conditions: Compound concentration 1000.0 nM
[13] = molecular target: Serine/threonine-protein kinase 4 (Homo sapiens) (UniProt Q13043); conditions: Compound concentration 1000.0 nM
[14] = molecular target: Serine/threonine-protein kinase DCLK2 (Homo sapiens) (UniProt Q8N568); conditions: Compound concentration 1000.0 nM
[15] = molecular target: Epidermal growth factor receptor (Homo sapiens) (UniProt P00533); conditions: Compound concentration 1000.0 nM
[16] = molecular target: Ankyrin repeat and protein kinase domain-containing protein 1 (Homo sapiens) (UniProt Q8NFD2); conditions: Compound concentration 1000.0 nM
[17] = molecular target: Calcium/calmodulin-dependent protein kinase type 1 (Homo sapiens) (UniProt Q14012); conditions: Compound concentration 1000.0 nM
[18] = test system: Tyrosine-protein kinase ABL1 (Homo sapiens), P00519 [F317I]; conditions: Compound concentration 1000.0 nM
[19] = molecular target: Calcium/calmodulin-dependent protein kinase kinase 2 (Homo sapiens) (UniProt Q96RR4); conditions: Compound concentration 1000.0 nM
[20] = molecular target: Tyrosine-protein kinase JAK1 (Homo sapiens) (UniProt P23458); conditions: Compound concentration 1000.0 nM
[21] = molecular target: Vascular endothelial growth factor receptor 2 (Homo sapiens) (UniProt P35968); conditions: Compound concentration 1000.0 nM
[22] = molecular target: Mitogen-activated protein kinase 7 (Homo sapiens) (UniProt Q13164); conditions: Compound concentration 1000.0 nM
[23] = molecular target: T1, Muscarinic acetylcholine receptor M1 (Homo sapiens) (UniProt P11229); conditions: Compound concentration 10.0 uM
T1 sequence (whole entry): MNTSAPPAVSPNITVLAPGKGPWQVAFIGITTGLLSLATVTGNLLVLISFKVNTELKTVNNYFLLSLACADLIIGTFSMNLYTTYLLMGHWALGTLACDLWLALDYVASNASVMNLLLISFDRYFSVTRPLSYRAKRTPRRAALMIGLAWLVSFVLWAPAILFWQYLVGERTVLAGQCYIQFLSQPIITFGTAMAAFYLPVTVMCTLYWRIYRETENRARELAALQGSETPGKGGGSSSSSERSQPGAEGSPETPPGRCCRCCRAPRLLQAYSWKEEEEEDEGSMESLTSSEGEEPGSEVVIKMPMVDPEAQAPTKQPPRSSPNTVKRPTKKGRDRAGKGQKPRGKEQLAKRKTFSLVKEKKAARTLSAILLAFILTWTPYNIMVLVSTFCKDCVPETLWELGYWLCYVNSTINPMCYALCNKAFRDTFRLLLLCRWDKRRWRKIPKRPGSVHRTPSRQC

[24] = molecular target: T2, Muscarinic acetylcholine receptor M2 (Homo sapiens) (UniProt P08172); conditions: Compound concentration 10.0 uM
T2 sequence (whole entry): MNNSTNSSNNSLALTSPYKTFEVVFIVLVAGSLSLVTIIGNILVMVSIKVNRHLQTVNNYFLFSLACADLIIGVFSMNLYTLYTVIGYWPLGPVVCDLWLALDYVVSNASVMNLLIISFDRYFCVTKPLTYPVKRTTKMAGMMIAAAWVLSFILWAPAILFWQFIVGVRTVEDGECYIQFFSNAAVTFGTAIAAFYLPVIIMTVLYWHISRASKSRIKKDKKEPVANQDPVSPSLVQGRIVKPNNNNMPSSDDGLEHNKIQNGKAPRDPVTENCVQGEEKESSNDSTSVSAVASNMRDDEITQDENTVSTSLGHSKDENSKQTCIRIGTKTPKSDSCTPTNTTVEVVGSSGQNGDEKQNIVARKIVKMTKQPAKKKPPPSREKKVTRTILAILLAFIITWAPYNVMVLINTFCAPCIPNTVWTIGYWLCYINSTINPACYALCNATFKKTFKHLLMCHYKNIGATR

[25] = molecular target: Mitogen-activated protein kinase kinase kinase kinase 4 (Homo sapiens) (UniProt O95819); conditions: Compound concentration 1000.0 nM
[26] = molecular target: Serine/threonine-protein kinase PknB (Mycobacterium tuberculosis) (UniProt P9WI81); conditions: Compound concentration 1000.0 nM
[27] = molecular target: Alpha-1B adrenergic receptor (Homo sapiens) (UniProt P35368); conditions: Compound concentration 10.0 uM
[28] = molecular target: Serine/threonine-protein kinase 38-like (Homo sapiens) (UniProt Q9Y2H1); conditions: Compound concentration 1000.0 nM
[29] = molecular target: Serine/threonine-protein kinase/endoribonuclease IRE1 (Homo sapiens) (UniProt O75460); conditions: Compound concentration 1000.0 nM
[30] = molecular target: Cyclin-dependent kinase 15 (Homo sapiens) (UniProt Q96Q40); conditions: Compound concentration 1000.0 nM
[31] = molecular target: Cyclin-dependent kinase-like 1 (Homo sapiens) (UniProt Q00532); conditions: Compound concentration 1000.0 nM
[32] = molecular target: Tyrosine-protein kinase Lck (Homo sapiens) (UniProt P06239); conditions: Compound concentration 1000.0 nM
[33] = molecular target: Rhodopsin kinase GRK7 (Homo sapiens) (UniProt Q8WTQ7); conditions: Compound concentration 1000.0 nM

Chain of Alpha-1B adrenergic receptor (Homo sapiens) (P35368 whole entry): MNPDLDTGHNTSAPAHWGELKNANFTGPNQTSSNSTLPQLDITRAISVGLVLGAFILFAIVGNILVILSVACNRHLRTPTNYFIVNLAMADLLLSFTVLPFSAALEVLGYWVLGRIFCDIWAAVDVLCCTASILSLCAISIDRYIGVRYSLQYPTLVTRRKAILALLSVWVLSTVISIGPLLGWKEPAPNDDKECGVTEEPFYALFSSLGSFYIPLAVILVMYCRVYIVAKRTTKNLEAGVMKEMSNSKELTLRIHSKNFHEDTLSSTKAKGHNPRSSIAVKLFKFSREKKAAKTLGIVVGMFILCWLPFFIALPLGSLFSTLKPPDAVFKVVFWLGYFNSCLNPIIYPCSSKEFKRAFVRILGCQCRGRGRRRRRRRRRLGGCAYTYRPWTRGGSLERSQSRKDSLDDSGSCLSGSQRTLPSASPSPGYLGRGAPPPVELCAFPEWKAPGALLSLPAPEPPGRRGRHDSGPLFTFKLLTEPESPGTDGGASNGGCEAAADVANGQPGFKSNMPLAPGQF
Chain of Homeodomain-interacting protein kinase 3 (Homo sapiens) (Q9H422 whole entry, looked up): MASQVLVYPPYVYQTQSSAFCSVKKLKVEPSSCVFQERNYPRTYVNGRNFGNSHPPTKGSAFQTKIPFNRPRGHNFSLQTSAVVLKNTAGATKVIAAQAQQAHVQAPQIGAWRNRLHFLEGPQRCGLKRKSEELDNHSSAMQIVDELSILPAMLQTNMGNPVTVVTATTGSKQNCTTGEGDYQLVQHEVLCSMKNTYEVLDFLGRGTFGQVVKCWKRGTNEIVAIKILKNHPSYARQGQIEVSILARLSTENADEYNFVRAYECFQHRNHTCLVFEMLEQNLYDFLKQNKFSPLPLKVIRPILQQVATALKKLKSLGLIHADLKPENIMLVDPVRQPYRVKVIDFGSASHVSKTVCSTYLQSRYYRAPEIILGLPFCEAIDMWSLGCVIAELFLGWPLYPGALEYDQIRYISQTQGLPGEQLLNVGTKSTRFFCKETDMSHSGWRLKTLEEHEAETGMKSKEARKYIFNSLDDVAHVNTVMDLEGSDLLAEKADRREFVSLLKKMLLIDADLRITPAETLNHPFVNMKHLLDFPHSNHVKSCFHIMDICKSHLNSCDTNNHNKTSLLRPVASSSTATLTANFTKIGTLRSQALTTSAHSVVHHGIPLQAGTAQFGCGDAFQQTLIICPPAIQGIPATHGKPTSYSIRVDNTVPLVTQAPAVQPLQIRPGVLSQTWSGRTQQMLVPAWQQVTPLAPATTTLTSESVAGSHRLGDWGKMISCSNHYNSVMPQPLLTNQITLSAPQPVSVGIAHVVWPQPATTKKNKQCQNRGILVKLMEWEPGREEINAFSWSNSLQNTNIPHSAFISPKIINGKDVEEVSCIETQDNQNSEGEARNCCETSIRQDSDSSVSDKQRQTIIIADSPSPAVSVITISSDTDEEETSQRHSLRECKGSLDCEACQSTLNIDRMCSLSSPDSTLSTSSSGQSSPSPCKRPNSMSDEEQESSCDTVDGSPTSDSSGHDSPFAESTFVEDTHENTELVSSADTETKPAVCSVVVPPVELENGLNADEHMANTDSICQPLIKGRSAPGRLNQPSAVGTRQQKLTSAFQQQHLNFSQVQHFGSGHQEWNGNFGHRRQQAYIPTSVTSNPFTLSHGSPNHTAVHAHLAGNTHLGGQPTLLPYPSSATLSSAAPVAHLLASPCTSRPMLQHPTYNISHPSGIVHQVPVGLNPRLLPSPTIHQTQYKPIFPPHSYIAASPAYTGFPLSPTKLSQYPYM
Chain of Mitogen-activated protein kinase kinase kinase 20 (Homo sapiens) (Q9NYL2 2-800 limits assumed): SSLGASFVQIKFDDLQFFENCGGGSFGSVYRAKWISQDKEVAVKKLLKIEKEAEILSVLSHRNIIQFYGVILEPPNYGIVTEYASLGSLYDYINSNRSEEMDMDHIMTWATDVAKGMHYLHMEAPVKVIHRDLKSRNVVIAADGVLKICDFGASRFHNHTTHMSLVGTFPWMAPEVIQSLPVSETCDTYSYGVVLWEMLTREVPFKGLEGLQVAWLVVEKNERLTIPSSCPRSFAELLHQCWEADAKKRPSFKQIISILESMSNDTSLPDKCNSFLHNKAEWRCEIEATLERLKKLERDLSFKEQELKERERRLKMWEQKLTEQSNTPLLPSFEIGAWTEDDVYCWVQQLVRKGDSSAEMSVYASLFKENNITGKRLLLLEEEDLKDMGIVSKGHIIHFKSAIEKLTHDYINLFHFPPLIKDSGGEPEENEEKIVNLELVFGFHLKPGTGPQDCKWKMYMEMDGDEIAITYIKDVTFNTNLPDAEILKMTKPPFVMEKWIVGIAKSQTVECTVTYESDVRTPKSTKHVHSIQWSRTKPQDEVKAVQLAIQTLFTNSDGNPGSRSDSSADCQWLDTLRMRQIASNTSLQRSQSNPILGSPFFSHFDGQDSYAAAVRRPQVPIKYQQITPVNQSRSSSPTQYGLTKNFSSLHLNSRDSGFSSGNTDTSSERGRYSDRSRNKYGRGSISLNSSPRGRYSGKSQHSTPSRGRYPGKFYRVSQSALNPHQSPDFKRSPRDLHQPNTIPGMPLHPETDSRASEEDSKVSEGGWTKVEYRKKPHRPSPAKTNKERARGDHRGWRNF
Chain of Fibroblast growth factor receptor 2 (Homo sapiens) (P21802 22-821 limits assumed): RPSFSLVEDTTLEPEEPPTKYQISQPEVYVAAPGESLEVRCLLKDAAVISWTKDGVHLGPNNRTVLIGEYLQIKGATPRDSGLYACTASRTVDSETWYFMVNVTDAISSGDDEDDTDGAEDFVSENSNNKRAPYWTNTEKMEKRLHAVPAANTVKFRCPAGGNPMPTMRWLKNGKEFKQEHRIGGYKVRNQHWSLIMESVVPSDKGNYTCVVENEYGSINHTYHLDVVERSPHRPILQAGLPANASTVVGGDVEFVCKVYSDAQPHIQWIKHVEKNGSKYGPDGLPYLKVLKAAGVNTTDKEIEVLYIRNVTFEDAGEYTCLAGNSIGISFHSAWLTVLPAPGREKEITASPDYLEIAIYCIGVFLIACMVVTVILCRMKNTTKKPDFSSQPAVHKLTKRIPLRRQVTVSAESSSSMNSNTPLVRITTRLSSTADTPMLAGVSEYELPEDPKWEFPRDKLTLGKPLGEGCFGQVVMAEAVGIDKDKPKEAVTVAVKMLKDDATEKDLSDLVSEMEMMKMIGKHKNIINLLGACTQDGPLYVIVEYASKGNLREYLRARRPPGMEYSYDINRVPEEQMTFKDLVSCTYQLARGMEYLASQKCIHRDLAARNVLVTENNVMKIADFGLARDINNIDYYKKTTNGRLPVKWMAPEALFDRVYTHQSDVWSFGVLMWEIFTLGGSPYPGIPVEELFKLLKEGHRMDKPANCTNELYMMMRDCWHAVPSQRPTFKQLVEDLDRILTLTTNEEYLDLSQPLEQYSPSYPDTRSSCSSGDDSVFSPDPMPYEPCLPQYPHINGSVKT
Chain of Serine/threonine-protein kinase/endoribonuclease IRE1 (Homo sapiens) (O75460 19-977 limits assumed): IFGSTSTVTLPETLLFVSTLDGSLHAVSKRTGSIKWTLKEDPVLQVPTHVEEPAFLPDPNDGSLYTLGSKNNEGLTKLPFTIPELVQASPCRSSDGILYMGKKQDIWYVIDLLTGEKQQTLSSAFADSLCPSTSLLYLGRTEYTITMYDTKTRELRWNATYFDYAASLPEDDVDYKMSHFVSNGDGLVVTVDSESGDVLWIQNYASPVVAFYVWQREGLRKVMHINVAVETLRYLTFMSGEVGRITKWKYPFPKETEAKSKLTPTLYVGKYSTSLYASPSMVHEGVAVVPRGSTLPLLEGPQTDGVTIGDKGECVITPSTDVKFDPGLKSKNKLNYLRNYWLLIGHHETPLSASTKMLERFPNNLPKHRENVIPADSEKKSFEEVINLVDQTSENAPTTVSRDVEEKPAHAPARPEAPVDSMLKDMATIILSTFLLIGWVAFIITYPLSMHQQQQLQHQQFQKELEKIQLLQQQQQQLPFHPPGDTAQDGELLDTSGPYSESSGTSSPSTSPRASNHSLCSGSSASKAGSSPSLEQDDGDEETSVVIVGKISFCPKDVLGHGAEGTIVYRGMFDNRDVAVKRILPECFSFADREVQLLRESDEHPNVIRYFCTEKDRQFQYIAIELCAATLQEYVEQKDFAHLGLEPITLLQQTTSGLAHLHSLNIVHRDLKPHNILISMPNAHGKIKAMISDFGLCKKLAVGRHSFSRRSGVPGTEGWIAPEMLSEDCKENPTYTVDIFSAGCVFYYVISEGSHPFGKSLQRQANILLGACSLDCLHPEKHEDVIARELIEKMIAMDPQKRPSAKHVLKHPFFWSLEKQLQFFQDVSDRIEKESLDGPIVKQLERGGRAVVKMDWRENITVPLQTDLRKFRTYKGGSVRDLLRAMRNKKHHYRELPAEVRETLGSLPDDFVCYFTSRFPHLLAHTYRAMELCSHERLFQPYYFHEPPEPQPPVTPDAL
Chain of Mitogen-activated protein kinase 9 (Homo sapiens) (P45984 whole entry, looked up): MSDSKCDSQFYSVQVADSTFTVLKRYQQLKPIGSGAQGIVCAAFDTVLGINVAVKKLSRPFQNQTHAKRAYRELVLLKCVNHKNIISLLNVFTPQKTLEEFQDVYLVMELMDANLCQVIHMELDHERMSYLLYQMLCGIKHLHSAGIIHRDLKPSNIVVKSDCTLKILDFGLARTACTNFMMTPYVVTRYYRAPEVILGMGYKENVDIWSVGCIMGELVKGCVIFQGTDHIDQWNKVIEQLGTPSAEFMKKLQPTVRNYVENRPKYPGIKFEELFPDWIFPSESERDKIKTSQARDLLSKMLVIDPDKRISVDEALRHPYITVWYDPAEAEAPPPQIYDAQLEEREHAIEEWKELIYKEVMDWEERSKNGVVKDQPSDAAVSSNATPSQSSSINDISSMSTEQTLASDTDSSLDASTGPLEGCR
Chain of Cyclin-dependent kinase-like 1 (Homo sapiens) (Q00532 whole entry): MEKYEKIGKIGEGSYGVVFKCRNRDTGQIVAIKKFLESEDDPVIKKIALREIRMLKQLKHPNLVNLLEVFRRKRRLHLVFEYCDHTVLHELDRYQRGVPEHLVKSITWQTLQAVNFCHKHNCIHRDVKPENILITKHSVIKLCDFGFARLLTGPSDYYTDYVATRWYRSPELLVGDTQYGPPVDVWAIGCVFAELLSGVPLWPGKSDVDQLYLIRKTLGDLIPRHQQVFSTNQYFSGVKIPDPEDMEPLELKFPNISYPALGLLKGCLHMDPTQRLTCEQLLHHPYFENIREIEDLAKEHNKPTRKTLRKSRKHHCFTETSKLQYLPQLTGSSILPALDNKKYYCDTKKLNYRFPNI

| SMILES | residual activity [1] | residual activity [2] | residual activity [3] | residual activity [4] | residual activity [5] | residual activity [6] | residual activity [7] | residual activity [8] | inhibition [9] | residual activity [10] | residual activity [11] | residual activity [12] | residual activity [13] | residual activity [14] | residual activity [15] | residual activity [16] | residual activity [17] | residual activity [18] | residual activity [19] | residual activity [20] | also measured |
| --- | --- | --- | --- | --- | --- | --- | --- | --- | --- | --- | --- | --- | --- | --- | --- | --- | --- | --- | --- | --- | --- |
| O=C(NCc1ncc(C(F)(F)F)cc1Cl)c1ccc2c(c1)C1(CCS(=O)(=O)CC1)[C@H](C1CC1)N2S(=O)(=O)c1ccc(F)cc1 [BAY-784] | 86% | 68% | 76% | 100% | 100% | 100% | 95% | 82% | -2.87% | 100% | 86% | 77% | 87% | 100% | 95% | 89% | 84% | 83% | 100% | 86% | residual activity [21]: 83%; residual activity [22]: 99%; inhibition [23]: -2.96%; inhibition [24]: 8.38%; residual activity [25]: 91%; residual activity [26]: 96%; inhibition [27]: -4.46%; residual activity [28]: 91%; residual activity [29]: 78%; residual activity [30]: 100%; residual activity [31]: 90%; residual activity [32]: 100%; residual activity [33]: 80% |
| O=C(NCc1ncc(C(F)(F)F)cc1Cl)c1ccc2c(c1)C1(CCS(=O)(=O)CC1)[C@@H](C1CC1)N2S(=O)(=O)c1ccc(F)cc1 [BAY-786] | 98% | 1.9% | 82% | 100% | 92% | 92% | 100% | 81% | -0.77% | 80% | 82% | 77% | 86% | 100% | 100% | 76% | 97% | 71% | 83% | 85% | residual activity [21]: 80%; residual activity [22]: 97%; inhibition [23]: -3.7%; inhibition [24]: 12.5%; residual activity [25]: 100%; residual activity [26]: 84%; inhibition [27]: -8.58%; residual activity [28]: 94%; residual activity [29]: 65%; residual activity [30]: 69%; residual activity [31]: 100%; residual activity [32]: 100%; residual activity [33]: 65% |
